According to patent US12514249B2, “Oxaloacetate and related compounds as herbicidal agents” (Verdesian Life Sciences U.S., LLC, priority 2020, dated 2026):

Tested on: plants
Assay: general screening of the herbicidal effect
Format: in vivo
Conditions: 10% w/w; compared with Roundup RTU and Bayer Advanced (10% and 100% Label Rate) and untreated control; FIG. 1
Protocol: A general screening of the herbicidal effect of the following compounds was carried out: Bayer Advanced® (100% Label Rate), Bayer Advanced® (10% Lable Rate), UTC (=untreated control), Diethyl Oxalacetate (10% w/w), Roundup® RTU (RTU=ready to use) (10% Label Rate) and Roundup® RTU (100% Label Rate).

**Q.** `CCOC(=O)/C=C(\O)C(=O)OCC` [Diethyl Oxalacetate] was tested. Which herbicidal activity did it give?
**A.** comparable to well-known herbicide products such as Roundup® and Bayer Advanced®
